Test results as given in patent US20230312528A1, “2-OXO-IMIDAZOLIDINE-4-CARBOXAMIDES AS NAV1.8 INHIBITORS” (Merck Sharp & Dohme LLC, priority 2020, published 2023).

Target: human NaV1.8 (Homo sapiens (Human), UniProt Q9Y5Y9)
Assay: Nav1.8 Qube automated patch-clamp assay
Format: cell-based
Conditions: human NaV1.8 stably expressed in HEK 293 cells; automated 384-well patch-clamp; resting or inactivated state not specified
Summary of the method: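 Human NaV1.8 in HEK293 cells, automated whole-cell patch clamp at room temperature: 1 Hz train of ten 20 ms pulses to 10 mV from −90 mV, repolarization to −67 mV. First- and tenth-pulse peak currents gave resting and inactivated-state IC50 values via Hill fits.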

Chain of human NaV1.8 (Q9Y5Y9 whole entry): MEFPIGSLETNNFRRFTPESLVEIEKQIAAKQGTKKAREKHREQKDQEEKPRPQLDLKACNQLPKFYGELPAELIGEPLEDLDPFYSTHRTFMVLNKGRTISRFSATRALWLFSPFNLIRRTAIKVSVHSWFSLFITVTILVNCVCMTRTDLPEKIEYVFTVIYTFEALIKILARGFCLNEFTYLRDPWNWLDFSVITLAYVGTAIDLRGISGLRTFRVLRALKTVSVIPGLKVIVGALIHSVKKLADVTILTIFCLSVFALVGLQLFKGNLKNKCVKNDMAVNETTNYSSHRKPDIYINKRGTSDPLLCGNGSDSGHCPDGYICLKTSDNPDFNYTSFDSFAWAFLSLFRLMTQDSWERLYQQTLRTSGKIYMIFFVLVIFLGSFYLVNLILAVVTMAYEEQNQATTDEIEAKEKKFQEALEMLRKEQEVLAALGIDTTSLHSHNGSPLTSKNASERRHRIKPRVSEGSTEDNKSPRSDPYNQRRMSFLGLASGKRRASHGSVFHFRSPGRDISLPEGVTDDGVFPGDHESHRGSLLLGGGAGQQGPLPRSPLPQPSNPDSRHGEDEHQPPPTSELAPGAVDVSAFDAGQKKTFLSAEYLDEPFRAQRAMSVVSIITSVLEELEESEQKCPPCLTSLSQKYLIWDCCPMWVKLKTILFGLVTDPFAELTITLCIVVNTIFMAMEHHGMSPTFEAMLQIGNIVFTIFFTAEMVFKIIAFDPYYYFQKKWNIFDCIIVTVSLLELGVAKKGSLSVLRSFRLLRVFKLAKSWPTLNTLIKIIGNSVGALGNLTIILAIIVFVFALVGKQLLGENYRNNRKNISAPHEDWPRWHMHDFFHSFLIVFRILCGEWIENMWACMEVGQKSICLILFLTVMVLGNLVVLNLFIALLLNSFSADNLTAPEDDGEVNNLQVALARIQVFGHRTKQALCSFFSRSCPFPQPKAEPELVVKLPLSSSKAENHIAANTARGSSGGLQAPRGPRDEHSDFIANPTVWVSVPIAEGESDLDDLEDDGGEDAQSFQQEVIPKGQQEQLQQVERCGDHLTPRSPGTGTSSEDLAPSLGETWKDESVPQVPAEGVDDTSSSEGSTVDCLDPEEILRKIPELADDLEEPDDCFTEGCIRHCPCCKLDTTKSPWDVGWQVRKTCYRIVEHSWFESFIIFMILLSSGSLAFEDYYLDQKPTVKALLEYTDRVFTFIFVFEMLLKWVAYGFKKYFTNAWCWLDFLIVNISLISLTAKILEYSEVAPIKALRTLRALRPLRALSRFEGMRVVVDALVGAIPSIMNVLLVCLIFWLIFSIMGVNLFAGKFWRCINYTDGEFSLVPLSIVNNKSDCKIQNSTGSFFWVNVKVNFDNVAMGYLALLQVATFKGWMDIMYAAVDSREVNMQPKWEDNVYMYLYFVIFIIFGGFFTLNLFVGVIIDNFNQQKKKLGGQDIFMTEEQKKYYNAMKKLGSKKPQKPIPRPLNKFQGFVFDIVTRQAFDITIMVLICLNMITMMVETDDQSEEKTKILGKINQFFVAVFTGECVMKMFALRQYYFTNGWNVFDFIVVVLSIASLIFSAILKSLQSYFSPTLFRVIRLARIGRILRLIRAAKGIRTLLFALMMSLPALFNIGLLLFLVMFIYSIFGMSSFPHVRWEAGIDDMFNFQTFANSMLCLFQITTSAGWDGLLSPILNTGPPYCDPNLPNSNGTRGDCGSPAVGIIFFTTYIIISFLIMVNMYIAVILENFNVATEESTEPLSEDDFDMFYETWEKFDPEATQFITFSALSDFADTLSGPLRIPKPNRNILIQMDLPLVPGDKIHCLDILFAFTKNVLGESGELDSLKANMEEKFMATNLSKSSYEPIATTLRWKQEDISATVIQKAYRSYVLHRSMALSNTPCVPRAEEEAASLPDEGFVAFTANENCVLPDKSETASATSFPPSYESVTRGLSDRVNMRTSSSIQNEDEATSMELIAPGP

With `O=C1NC[C@@H](C(=O)NC(c2ccc(OC(F)(F)F)c(Cl)c2)c2ccnc(C(F)(F)F)n2)N1` (single isomer, unassigned) [Example 49A, (S)-N-((R or S)-3-chloro-4-(trifluoro-methoxy)phenyl)(2-(trifluoromethyl)pyrimidin-4-yl)methyl)-2-oxoimidazolidine-4-carboxamide] the IC50 was 7.6 nM.

`O=C1NC[C@@H](C(=O)NC(c2ccc(OC(F)(F)F)c(Cl)c2)c2ccnc(C(F)(F)F)n2)N1` (single isomer, unassigned) [Example 49B, (S)-N-((R or S)-3-chloro-4-(trifluoro-methoxy)phenyl)(2-(trifluoromethyl)pyrimidin-4-yl)methyl)-2-oxoimidazolidine-4-carboxamide] gave an IC50 of 6.8 nM.

In the case of `O=C1NC[C@@H](C(=O)NC(c2ccc(OCC(F)(F)F)nn2)c2ccc(F)c(Cl)c2F)N1` (single isomer, unassigned) [Example 50A, (4S)—N—((R or S)-(3-chloro-2,4-difluorophenyl)(6-(2,2,2-trifluoroethoxy)-pyridazin-3-yl)methyl)-2-oxoimidazolidine-4-carboxamide], the IC50 is reported as 45 nM.

`O=C1NC[C@@H](C(=O)NC(c2ccc(OCC(F)(F)F)nn2)c2ccc(F)c(Cl)c2F)N1` (single isomer, unassigned) [Example 50B, (4S)—N—((R or S)-(3-chloro-2,4-difluorophenyl)(6-(2,2,2-trifluoroethoxy)pyridazin-3-yl)methyl)-2-oxoimidazolidine-4-carboxamide] showed an IC50 of 206 nM.

`O=C1NC[C@@H](C(=O)NC(c2cnc(OCC(F)(F)F)cn2)c2ccc(F)c(Cl)c2F)N1` (single isomer, unassigned) [Example 51A, N—((R or S)-(3-chloro-2,4-difluorophenyl)(5-(2,2,2-trifluoroethoxy)pyrazin-2-yl)methyl)-2-oxoimidazolidine-4-carboxamide] showed an IC50 of 9.2 nM.

For `O=C1NC[C@@H](C(=O)NC(c2cnc(OCC(F)(F)F)cn2)c2ccc(F)c(Cl)c2F)N1` (single isomer, unassigned) [Example 51B, N—((R or S)-(3-chloro-2,4-difluorophenyl)(5-(2,2,2-trifluoroethoxy)pyrazin-2-yl)methyl)-2-oxoimidazolidine-4-carboxamide], the IC50 was 166 nM.

Work on `O=C1NC[C@@H](C(=O)NC(CCc2ccc(Cl)cc2)c2ccc(F)c(Cl)c2F)N1` (single isomer, unassigned) [Example 52A, (4S)—N—((R or S)-1-(3-chloro-2,4-difluorophenyl)-3-(4-chlorophenyl)propyl)-2-oxoimidazolidine-4-carboxamide] yielded an IC50 of 46 nM.

`O=C1NC[C@@H](C(=O)NC(CCc2ccc(Cl)cc2)c2ccc(F)c(Cl)c2F)N1` (single isomer, unassigned) [Example 52B, (4S)—N—((R or S)-1-(3-chloro-2,4-difluorophenyl)-3-(4-chlorophenyl)propyl)-2-oxoimidazolidine-4-carboxamide] gave an IC50 of 4.3 nM.

With `O=C1NC[C@@H](C(=O)NC(CC2CCCCC2)c2ccc(F)c(Cl)c2F)N1` (single isomer, unassigned) [Example 54A, (S)-N-((R or S)-1-(3-chloro-2,4-difluorophenyl)-2-cyclohexylethyl)-2-oxoimidazolidine-4-carboxamide] the IC50 was 3.2 nM.

Work on `O=C1NC[C@@H](C(=O)NC(CC2CCCCC2)c2ccc(F)c(Cl)c2F)N1` (single isomer, unassigned) [Example 54B, (S)-N-((R or S)-1-(3-chloro-2,4-difluorophenyl)-2-cyclohexylethyl)-2-oxoimidazolidine-4-carboxamide] yielded an IC50 of 50 nM.

Work on `O=C1NC[C@@H](C(=O)NC(c2cnc(OC(F)F)nc2)c2ccc(F)c(Cl)c2F)N1` (single isomer, unassigned) [Example 55A, (4S)—N—((R or S)-(3-chloro-2,4-difluorophenyl)(2-(difluoromethoxy)pyrimidin-5-yl)methyl)-2-oxoimidazolidine-4-carboxamide] yielded an IC50 of 79 nM.

`O=C1NC[C@@H](C(=O)NC(c2cnc(C(F)(F)F)c(Cl)c2)c2ccc(Cl)c(C(F)(F)F)n2)N1` (single isomer, unassigned) [Example 56A, (S)-N-((R or S)-(5-chloro-6-(trifluoromethyl)pyridin-2-yl)(5-chloro-6-(trifluoromethyl)pyridin-3-yl)methyl)-2-oxoimidazolidine-4-carboxamide] gave an IC50 of 2.5 nM.

With `O=C1NC[C@@H](C(=O)NC(c2cnc(C(F)(F)F)c(Cl)c2)c2ccc(Cl)c(C(F)(F)F)n2)N1` (single isomer, unassigned) [Example 56B, (S)-N-((R or S)-(5-chloro-6-(trifluoromethyl)pyridin-2-yl)(5-chloro-6-(trifluoromethyl)pyridin-3-yl)methyl)-2-oxoimidazolidine-4-carboxamide] the IC50 was 4.5 nM.

Compound `N#Cc1cc(C(NC(=O)[C@@H]2CNC(=O)N2)c2ccc(OC(F)(F)F)cc2)ccc1Cl` (single isomer, unassigned) [Example 57A, (S)-N-((R or S)-(4-chloro-3-cyanophenyl)(4-(trifluoromethoxy)phenyl)methyl)-2-oxoimidazolidine-4-carboxamide] has an IC50 of 3.5 nM.

In the case of `N#Cc1cc(C(NC(=O)[C@@H]2CNC(=O)N2)c2ccc(OC(F)(F)F)cc2)ccc1Cl` (single isomer, unassigned) [Example 57B, (S)-N-((R or S)-(4-chloro-3-cyanophenyl)(4-(trifluoromethoxy)phenyl)methyl)-2-oxoimidazolidine-4-carboxamide], the IC50 is reported as 2.4 nM.

Work on `O=C1NC[C@@H](C(=O)NC(c2ccc(F)c(Cl)c2F)C2CCCCN2CC(F)(F)F)N1` (single isomer, unassigned) [Example 58A, (S)-N-((R or S)-(3-chloro-2,4-difluorophenyl) ((R or S)-1-(2,2,2-trifluoroethyl)piperidin-2-yl)methyl)-2-oxoimidazolidine-4-carboxamide] yielded an IC50 of 2010 nM.

Compound `O=C1NC[C@@H](C(=O)NC(c2ccc(F)c(Cl)c2F)C2CCCCN2CC(F)(F)F)N1` (single isomer, unassigned) [Example 58B, (S)-N-((R or S)-(3-chloro-2,4-difluorophenyl) ((R or S)-1-(2,2,2-trifluoroethyl)piperidin-2-yl)methyl)-2-oxoimidazolidine-4-carboxamide] has an IC50 of 35 nM.

In the case of `O=C1NC[C@@H](C(=O)NC(c2ccc(F)c(Cl)c2F)C2CCCCN2CC(F)(F)F)N1` (single isomer, unassigned) [Example 58C, (S)-N-((R or S)-(3-chloro-2,4-difluorophenyl) ((R or S)-1-(2,2,2-trifluoroethyl)piperidin-2-yl)methyl)-2-oxoimidazolidine-4-carboxamide], the IC50 is reported as 130 nM.

`O=C1NC[C@@H](C(=O)NC(c2ccc(F)c(Cl)c2F)C2CCCCN2CC(F)(F)F)N1` (single isomer, unassigned) [Example 58D, (S)-N-((R or S)-(3-chloro-2,4-difluorophenyl) ((R or S)-1-(2,2,2-trifluoroethyl)piperidin-2-yl)methyl)-2-oxoimidazolidine-4-carboxamide] showed an IC50 of 787 nM.

Work on `O=C1NC[C@@H](C(=O)NC(c2ccc(Cl)cc2)c2cc(C(F)(F)F)c(F)cn2)N1` (single isomer, unassigned) [Example 59A, (S)-N-((R or S)-(4-chlorophenyl)(5-fluoro-4-(trifluoromethyl)pyridin-2-yl)methyl)-2-oxoimidazolidine-4-carboxamide] yielded an IC50 of 44 nM.

For `O=C1NC[C@@H](C(=O)NC(c2ccc(Cl)cc2)c2cc(C(F)(F)F)c(F)cn2)N1` (single isomer, unassigned) [Example 59B, (S)-N-((R or S)-(4-chlorophenyl)(5-fluoro-4-(trifluoromethyl)pyridin-2-yl)methyl)-2-oxo-imidazolidine-4-carboxamide], the IC50 was 62 nM.

`N#Cc1ccc(C(NC(=O)[C@@H]2CNC(=O)N2)c2ccc(Cl)c(C(F)(F)F)c2)cc1` (single isomer, unassigned) [Example 60A, (S)-N-((R or S)-(4-chloro-3-(trifluoromethyl)-phenyl)(4-cyanophenyl)-methyl)-2-oxo-imidazolidine-4-carboxamide] showed an IC50 of 3.1 nM.

In the case of `N#Cc1ccc(C(NC(=O)[C@@H]2CNC(=O)N2)c2ccc(Cl)c(C(F)(F)F)c2)cc1` (single isomer, unassigned) [Example 60B, (S)-N-((R or S)-(4-chloro-3-(trifluoromethyl)-phenyl)(4-cyanophenyl)-methyl)-2-oxo-imidazolidine-4-carboxamide], the IC50 is reported as 3.8 nM.

With `O=C1NC[C@@H](C(=O)NC(c2ccc(F)c(Cl)c2)c2ccc(Cl)c(C(F)(F)F)n2)N1` (single isomer, unassigned) [Example 62A, (S)-N-((R or S)-(3-chloro-4-fluorophenyl)(5-chloro-6-(trifluoromethyl)pyridin-2-yl)methyl)-2-oxoimidazolidine-4-carboxamide] the IC50 was 8 nM.

Compound `O=C1NC[C@@H](C(=O)NC(c2ccc(F)c(Cl)c2)c2ccc(Cl)c(C(F)(F)F)n2)N1` (single isomer, unassigned) [Example 62B, (S)-N-((R or S)-(3-chloro-4-fluorophenyl)(5-chloro-6-(trifluoromethyl)pyridin-2-yl)methyl)-2-oxoimidazolidine-4-carboxamide] has an IC50 of 0.4 nM.

In the case of `O=C1NC[C@@H](C(=O)NC(c2ccc(F)c(C(F)F)n2)c2ccc(F)c(Cl)c2F)N1` (single isomer, unassigned) [Example 63A, (S)-N-((R or S)-(3-chloro-2,4-difluorophenyl)(6-(difluoromethyl)-5-fluoropyridin-2-yl)methyl)-2-oxoimidazolidine-4-carboxamide], the IC50 is reported as 4.2 nM.

Compound `O=C1NC[C@@H](C(=O)NC(c2ccc(F)c(C(F)F)n2)c2ccc(F)c(Cl)c2F)N1` (single isomer, unassigned) [Example 63B, (S)-N-((R or S)-(3-chloro-2,4-difluorophenyl)(6-(difluoromethyl)-5-fluoropyridin-2-yl)methyl)-2-oxoimidazolidine-4-carboxamide] has an IC50 of 16 nM.
